Molecular target: T1, CFTR in F508del/MF-HBE cells (Homo sapiens, UniProt P13569, DEL508-508)
T1 construct: human bronchial epithelial (HBE) cells derived from CF subjects heterozygous for F508del and a minimal function CFTR mutation; endogenous in cells; host or cells: primary human bronchial epithelial cells from CF subjects (F508del/MF-HBE)
Assay: Ussing chamber assay of CFTR-mediated short-circuit currents (identification of potentiator compounds)
Type: cell-based
Settings: potentiator incubated 18-24 hours at 37° C. in combination with 10 μM corrector, in the presence of 20% human serum, CFTR-mediated ISC
How it was run: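 Short-circuit current was measured in Ussing chambers at 37° C, Vhold 0 mV, 30 μM apical amiloride. CFTR current was defined as the forskolin (20 μM) response relative to the current remaining after BPO/GlyH-101/inhibitor 172 (20 μM each). Before recording, cells had 18-24 h exposure to test potentiators with 10 μM corrector compound in 20% human serum.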

T1 sequence (P13569 with tags, fused parts or gaps DEL508-508): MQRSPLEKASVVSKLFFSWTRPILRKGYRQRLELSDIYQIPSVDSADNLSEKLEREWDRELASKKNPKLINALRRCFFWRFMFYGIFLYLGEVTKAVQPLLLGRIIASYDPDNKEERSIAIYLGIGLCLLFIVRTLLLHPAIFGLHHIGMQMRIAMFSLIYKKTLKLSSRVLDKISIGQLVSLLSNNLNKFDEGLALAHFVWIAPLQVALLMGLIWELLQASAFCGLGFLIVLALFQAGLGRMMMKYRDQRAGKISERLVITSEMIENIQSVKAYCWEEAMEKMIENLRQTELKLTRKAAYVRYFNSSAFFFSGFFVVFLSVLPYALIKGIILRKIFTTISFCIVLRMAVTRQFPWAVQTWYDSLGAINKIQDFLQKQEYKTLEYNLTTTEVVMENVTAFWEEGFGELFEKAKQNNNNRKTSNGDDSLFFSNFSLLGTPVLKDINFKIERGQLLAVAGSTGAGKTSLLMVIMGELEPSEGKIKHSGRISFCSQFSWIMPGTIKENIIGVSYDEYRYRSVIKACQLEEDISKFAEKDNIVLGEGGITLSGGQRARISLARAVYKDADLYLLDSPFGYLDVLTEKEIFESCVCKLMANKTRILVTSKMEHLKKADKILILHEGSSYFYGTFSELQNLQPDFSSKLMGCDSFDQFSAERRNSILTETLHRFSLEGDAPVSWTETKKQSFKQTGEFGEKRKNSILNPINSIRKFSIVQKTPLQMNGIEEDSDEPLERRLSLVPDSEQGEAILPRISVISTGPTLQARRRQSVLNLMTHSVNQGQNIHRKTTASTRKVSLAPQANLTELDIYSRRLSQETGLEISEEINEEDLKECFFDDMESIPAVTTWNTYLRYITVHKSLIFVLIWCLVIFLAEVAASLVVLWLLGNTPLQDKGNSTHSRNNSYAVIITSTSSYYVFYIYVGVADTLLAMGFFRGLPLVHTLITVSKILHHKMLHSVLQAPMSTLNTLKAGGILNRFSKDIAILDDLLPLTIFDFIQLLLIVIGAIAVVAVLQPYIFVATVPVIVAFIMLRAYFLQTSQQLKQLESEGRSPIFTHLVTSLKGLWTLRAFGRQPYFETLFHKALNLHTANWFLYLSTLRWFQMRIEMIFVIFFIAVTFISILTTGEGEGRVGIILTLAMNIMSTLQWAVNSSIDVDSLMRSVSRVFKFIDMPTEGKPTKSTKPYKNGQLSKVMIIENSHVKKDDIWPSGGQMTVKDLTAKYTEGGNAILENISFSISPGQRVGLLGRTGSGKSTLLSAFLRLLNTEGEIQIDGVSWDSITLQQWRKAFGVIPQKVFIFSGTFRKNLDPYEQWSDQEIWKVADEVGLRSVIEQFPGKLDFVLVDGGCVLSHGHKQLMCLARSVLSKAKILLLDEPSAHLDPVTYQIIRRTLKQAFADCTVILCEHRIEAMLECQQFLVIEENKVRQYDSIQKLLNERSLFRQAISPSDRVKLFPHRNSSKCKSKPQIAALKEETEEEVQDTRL

Structure (SMILES)	EC50 [nM]
CC(C)CN1CCCCC(O)(C(F)(F)F)C2=NN=C(O2)c2nc(c(C(F)(F)F)cc2N)C1=O (single isomer, unassigned) [Compound 232, 16-amino-6-hydroxy-11-isobutyl-6,14-bis(trifluoromethyl)-18-oxa-3,4,11,17-tetrazatricyclo [11.3.1.12,5] octadeca-1(17),2,4,13,15-pentaen-12-one]	< 500
CC(C)CN1CCCCC(O)(C(F)(F)F)C2=NN=C(O2)c2nc(c(C(F)(F)F)cc2N)C1=O (single isomer, unassigned) [Compound 233, 16-amino-6-hydroxy-11-isobutyl-6,14-bis(trifluoromethyl)-18-oxa-3,4,11,17-tetrazatricyclo [11.3.1.12,5] octadeca-1(17),2,4,13,15-pentaen-12-one]	< 500
Nc1cc(C(F)(F)F)c2nc1-c1nnc(o1)C(O)(C(F)(F)F)CCCCN(Cc1ccc(OC(F)(F)F)cc1)C2=O (single isomer, unassigned) [Compound 234, 16-amino-6-hydroxy-11-[[4-(trifluoromethoxy)phenyl]methyl]-6,14-bis(trifluoromethyl)-18-oxa-3,4,11,17-tetrazatricyclo [11.3.1.12,5] octadeca-1(17),2,4,13,15-pentaen-12-one]	< 500
Nc1cc(C(F)(F)F)c2nc1-c1nnc(o1)C(O)(C(F)(F)F)CCCCN(Cc1ccc(OC(F)(F)F)cc1)C2=O (single isomer, unassigned) [Compound 235, 16-amino-6-hydroxy-11-[[4-(trifluoromethoxy)phenyl]methyl]-6,14-bis(trifluoromethyl)-18-oxa-3,4,11,17-tetrazatricyclo [11.3.1.12,5] octadeca-1(17),2,4,13,15-pentaen-12-one]	< 500
Nc1cc(C(F)(F)F)c2nc1-c1nnc(o1)C(O)(C(F)(F)F)CCCCCN(Cc1ccc(Br)cc1)C2=O (single isomer, unassigned) [Compound 236, 17-amino-12-[(4-bromophenyl)methyl]-6-hydroxy-6,15-bis(trifluoromethyl)-19-oxa-3,4,12,18-tetrazatricyclo [12.3.1.12,5] nonadeca-1(18),2,4,14,16-pentaen-13-one]	< 500
Nc1cc(C(F)(F)F)c2nc1-c1nnc(o1)C(O)(C(F)(F)F)CCCCN(Cc1ccccc1)C2=O (single isomer, unassigned) [Compound 238, 16-amino-11-benzyl-6-hydroxy-6,14-bis(trifluoromethyl)-18-oxa-3,4,11,17-tetrazatricyclo [11.3.1.12,5] octadeca-1(17),2,4,13,15-pentaen-12-one]	< 500
Nc1cc(C(F)(F)F)c2nc1-c1nnc(o1)C(O)(C(F)(F)F)CCCCN(Cc1ccccc1)C2=O (single isomer, unassigned) [Compound 239, 16-amino-11-benzyl-6-hydroxy-6,14-bis(trifluoromethyl)-18-oxa-3,4,11,17-tetrazatricyclo [11.3.1.12,5] octadeca-1(17),2,4,13,15-pentaen-12-one]	< 500
Nc1cc(C(F)(F)F)c2nc1-c1nnc(o1)C(O)(C(F)(F)F)CCCCNC2=O (single isomer, unassigned) [Compound 249, 16-amino-6-hydroxy-6,14-bis(trifluoromethyl)-18-oxa-3,4,11,17-tetrazatricyclo [11.3.1.12,5] octadeca-1(17),2,4,13,15-pentaen-12-one]	< 500
Nc1cc(C(F)(F)F)c2nc1-c1nnc(o1)C(O)(C(F)(F)F)CCCCNC2=O (single isomer, unassigned) [Compound 250, 16-amino-6-hydroxy-6,14-bis(trifluoromethyl)-18-oxa-3,4,11,17-tetrazatricyclo [11.3.1.12,5] octadeca-1(17),2,4,13,15-pentaen-12-one]	> 1000
Nc1cc(C(F)(F)F)c2nc1-c1nnc(o1)[C@@](O)(C(F)(F)F)CCCCCCC2=O [Compound 6, (6R)-17-amino-6-hydroxy-6,15-bis(trifluoromethyl)-19-oxa-3,4,18-triazatricyclo[12.3.1.12,5]nonadeca-1(18),2,4,14,16-pentaen-13-one]	< 500
Cn1cc2c(n1)-c1nc(c(N)cc1C(F)(F)F)-c1nnc(o1)C(O)(C(F)(F)F)CCCCC2 (centres unmarked) [Compound 24, 20-Amino-14-methyl-6,18-bis(trifluoromethyl)-22-oxa-3,4,14,15,21-pentaazatetracyclo[15.3.1.12,5.012,16]docosa-1(21),2,4,12,15,17,19-heptaen-6-ol]	> 1000
Nc1cc(C(F)(F)F)c2nc1-c1nnc(o1)[C@@](O)(C(F)(F)F)CCCC(F)(F)CCC2=O [Compound 38, (6R)-17-amino-10,10-difluoro-6-hydroxy-6,15-bis(trifluoromethyl)-19-oxa-3,4,18-triazatricyclo[12.3.1.12,5]nonadeca-1(18),2,4,14,16-pentaen-13-one]	< 500
Nc1cc(C(F)(F)F)c2nc1-c1nnc(o1)[C@](O)(C(F)(F)F)CCCC(F)(F)CCC2=O [Compound 39, (6S)-17-amino-10,10-difluoro-6-hydroxy-6,15-bis(trifluoromethyl)-19-oxa-3,4,18-triazatricyclo[12.3.1.12,5]nonadeca-1(18),2,4,14,16-pentaen-13-one]	500 to 1000
Nc1cc(C(F)(F)F)c2nc1-c1nnc(o1)[C@@](O)(C(F)(F)F)CCC(F)(F)CCCC2=O [Compound 40, (6R)-17-amino-9,9-difluoro-6-hydroxy-6,15-bis(trifluoromethyl)-19-oxa-3,4,18-triazatricyclo[12.3.1.12,5]nonadeca-1(18),2,4,14,16-pentaen-13-one]	< 500
Nc1cc(C(F)(F)F)c2nc1-c1nnc(o1)[C@](O)(C(F)(F)F)CCC(F)(F)CCCC2=O [Compound 41, (6S)-17-amino-9,9-difluoro-6-hydroxy-6,15-bis(trifluoromethyl)-19-oxa-3,4,18-triazatricyclo[12.3.1.12,5]nonadeca-1(18),2,4,14,16-pentaen-13-one]	< 500
Nc1cc(C(F)(F)F)c2nc1-c1nnc(o1)[C@@](O)(C(F)(F)F)CCCC(=O)CCC2(F)F [Compound 42, (6R)-17-Amino-13,13-difluoro-6-hydroxy-6,15-bis(trifluoromethyl)-19-oxa-3,4,18-triazatricyclo[12.3.1.12,5]nonadeca-1(18),2,4,14,16-pentaen-10-one]	< 500
Nc1cc(C(F)(F)F)c2nc1-c1nnc(o1)[C@@](O)(C(F)(F)F)CCC(=O)CCCC2(F)F [Compound 43, (6R)-17-amino-13,13-difluoro-6-hydroxy-6,15-bis(trifluoromethyl)-19-oxa-3,4,18-triazatricyclo[12.3.1.12,5]nonadeca-1(18),2,4,14,16-pentaen-9-one]	< 500
Nc1cc(C(F)(F)F)c2nc1-c1nnc(o1)[C@@](O)(C(F)(F)F)CC(F)(F)CCCCC2=O [Compound 44, (6R)-17-amino-8,8-difluoro-6-hydroxy-6,15-bis(trifluoromethyl)-19-oxa-3,4,18-triazatricyclo[12.3.1.12,5]nonadeca-1(18),2,4,14,16-pentaen-13-one]	< 500
CC1(C)CCCCC[C@](O)(C(F)(F)F)C2=NN=C(O2)c2nc(c(C(F)(F)F)cc2N)C1=O [Compound 45, (6R)-17-amino-6-hydroxy-12,12-dimethyl-6,15-bis(trifluoromethyl)-19-oxa-3,4,18-triazatricyclo[12.3.1.12,5]nonadeca-1(18),2,4,14,16-pentaen-13-one]	< 500
CC1(C)CCCCC[C@@](O)(C(F)(F)F)C2=NN=C(O2)c2nc(c(C(F)(F)F)cc2N)C1=O [Compound 46, (6S)-17-amino-6-hydroxy-12,12-dimethyl-6,15-bis(trifluoromethyl)-19-oxa-3,4,18-triazatricyclo[12.3.1.12,5]nonadeca-1(18),2,4,14,16-pentaen-13-one]	< 500
CC1(C)CCCC[C@](O)(C(F)(F)F)C2=NN=C(O2)c2nc(c(C(F)(F)F)cc2N)C(=O)C1 [Compound 47, (6R)-17-amino-6-hydroxy-11,11-dimethyl-6,15-bis(trifluoromethyl)-19-oxa-3,4,18-triazatricyclo[12.3.1.12,5]nonadeca-1(18),2,4,14,16-pentaen-13-one]	< 500
Nc1cc(C(F)(F)F)c2nc1-c1nnc(o1)[C@@](O)(C(F)(F)F)CCCCCC1(CCC1)C2=O [Compound 48, (6R)-17-amino-6-hydroxy-6,15-bis(trifluoromethyl)spiro[19-oxa-3,4,18-triazatricyclo[12.3.1.12,5]nonadeca-1(18),2,4,14,16-pentaene-12,1′-cyclobutane]-13-one]	< 500
Nc1cc(C(F)(F)F)c2nc1-c1nnc(o1)[C@@](O)(C(F)(F)F)CCCCCC1(CC1)C2=O [Compound 49, (6R)-17-amino-6-hydroxy-6,15-bis(trifluoromethyl)spiro[19-oxa-3,4,18-triazatricyclo[12.3.1.12,5]nonadeca-1(18),2,4,14,16-pentaene-12,1′-cyclopropane]-13-one]	< 500
CC1(C)CCCCC[C@](O)(C(F)(F)F)C2=NN=C(O2)c2nc(c(C(F)(F)F)cc2N)C1 [Compound 50, (6R)-17-amino-12,12-dimethyl-6,15-bis(trifluoromethyl)-19-oxa-3,4,18-triazatricyclo[12.3.1.12,5]nonadeca-1(18),2,4,14,16-pentaen-6-ol]	< 500
Nc1cc(C(F)(F)F)c2nc1-c1nnc(o1)C(O)(C(F)(F)F)CCCCN(Cc1ccccc1)C(=O)C2 (centres unmarked) [Compound 51, 17-amino-11-benzyl-6-hydroxy-6,15-bis(trifluoromethyl)-19-oxa-3,4,11,18-tetrazatricyclo[12.3.1.12,5]nonadeca-1(18),2,4,14,16-pentaen-12-one]	< 500
CC(C)N1CCCCC(O)(C(F)(F)F)C2=NN=C(O2)c2nc(c(C(F)(F)F)cc2N)CC1=O (centres unmarked) [Compound 52, 17-amino-6-hydroxy-11-isopropyl-6,15-bis(trifluoromethyl)-19-oxa-3,4,11,18-tetrazatricyclo[12.3.1.12,5]nonadeca-1(18),2,4,14,16-pentaen-12-one]	> 1000
